For data set [1], the target named is Nucleic Acid. The data set is described as follows: Displacement of methyl green dye from DNA after 24 hrs by spectrophotometric analysis. The class given is nucleic-acid assay.
Data set [2] relates to Nucleic Acid. The data set is described as follows: Binding affinity to DNA using anisaldehyde reagent by TLC method. The class given is nucleic-acid assay.
A short description of data set [3]: Antitumor activity against mouse EAC cells xenografted in Swiss albino mouse assessed as increase in lifespan of organism at 100 ug administered 24 hrs post inoculation for 9 days. The class given is functional, Ehrlich.
Data set [4] relates to Ehrlich. Description: Antitumor activity against mouse EAC cells xenografted in Swiss albino mouse assessed as reduction in viable tumor cells at 100 ug after 5 days using giemsa staining by microscopy. The class given is functional.
Data set [5] relates to Mus musculus. The data set is described as follows: Toxicity in Swiss albino mouse xenografted with mouse EAC assessed as haemoglobin level at 100 ug (reference value: 13.4 per g%). The class given is organism-based. As to conditions: in vivo.
Data set [6] deals with Mus musculus. Description: Toxicity in Swiss albino mouse xenografted with mouse EAC assessed as RBC level at 100 ug (reference value: 5.1/10^6 mm-3). As to conditions: in vivo. It is filed as organism-based.
In data set [7] the test system is Mus musculus. The data set is described as follows: Toxicity in Swiss albino mouse xenografted with mouse EAC assessed as total WBC level at 100 ug (reference value: 4.35/10^3 mm3). The class given is organism-based. To be noted: in vivo.
Data set [8] relates to Mus musculus. The data set is described as follows: Toxicity in Swiss albino mouse xenografted with mouse EAC assessed as ALT level at 100 ug (reference value: 3.7 u/L). The class given is organism-based. To be noted: in vivo.
The nature of data set [9]: Antitumor activity against mouse EAC cells xenografted in Swiss albino mouse assessed as increase in lifespan of organism at 20 mg/kg, ip administered 24 hrs post inoculation for 9 days. To be noted: route intraperitoneal. It is filed as functional, Ehrlich.
Data set [10] concerns Mus musculus. The data set is described as follows: Toxicity in Swiss albino mouse xenografted with mouse EAC assessed as haemoglobin level at 20 mg/kg, ip (reference value: 13.4 per g%). The class given is organism-based. On the set-up: dose 20 mg/kg, route intraperitoneal. To be noted: in vivo.
Data set [11] relates to Mus musculus. Description: Toxicity in Swiss albino mouse xenografted with mouse EAC assessed as RBC level at 20 mg/kg, ip (reference value: 5.1/10^6 mm-3). It is filed as organism-based. On the set-up: dose 20 mg/kg, route intraperitoneal. As to conditions: in vivo.
The subject of data set [12] is Mus musculus. Description: Toxicity in Swiss albino mouse xenografted with mouse EAC assessed as total WBC level at 20 mg/kg, ip (reference value: 4.35/10^3 mm3). It is filed as organism-based. Also on record: dose 20 mg/kg, route intraperitoneal. As to conditions: in vivo.
Data set [13] deals with Mus musculus. Description: Toxicity in Swiss albino mouse xenografted with mouse EAC assessed as ALT level at 20 mg/kg, ip (reference value: 3.7 u/L). The class given is organism-based. On the set-up: dose 20 mg/kg, route intraperitoneal. As to conditions: in vivo.
Data set [14] concerns Ehrlich. Description: Antitumor activity against mouse EAC cells xenografted in Swiss albino mouse assessed as reduction in viable tumor cells at 20 mg/kg, ip after 5 days using giemsa staining by microscopy. It is filed as functional, organism-based. Also on record: dose 20 mg/kg.

In brackets after ≈: the same amount, converted by molar mass. Activity calls are given as the source filed them. No cut-off for these calls is given here.

Regarding `NS(=O)(=O)c1nn2c(=O)cc(Cl)nc2s1`, on Nucleic Acid [1], the IC50 (usually the concentration at which inhibition is half-maximal) worked out at 79 µg/mL (≈ 296 µM).

As to `NS(=O)(=O)C1=NN2C(=NC(c3ccccc3)=CC2c2ccc(Cl)cc2)S1` (centres undefined), the outcome in the data set with Nucleic Acid [2] and with Ehrlich [4] was Active. Also, at Nucleic Acid [1], the IC50 is 40 µg/mL (≈ 98.8 µM). Further, the Activity in data set [3] turned out to be 42.86%.

Take `Nc1ccc(C2=CC(c3ccc(Cl)cc3)N3N=C(S(N)(=O)=O)SC3=N2)cc1` (centres undefined): the outcome in the data set with Nucleic Acid [2] and with Ehrlich [4] was Active. In addition, the IC50 on Nucleic Acid [1] came out at 64 µg/mL (≈ 152 µM). Moreover, the Activity was determined as 71.43% in data set [3]; 11.1% with Mus musculus [5]; 5.96% with Mus musculus [6]; 9.45% in the data set on Mus musculus [7]; 6.7% in the data set with Mus musculus [8].

Consider `Cc1cc(=O)n2nc(S(N)(=O)=O)sc2n1`, for which, at Nucleic Acid [1], the IC50 is 76 µg/mL (≈ 309 µM).

In the case of `Cc1nc2sc(S(N)(=O)=O)nn2c(=O)c1/N=N/c1ccc(Cl)cc1`, the IC50 on Nucleic Acid [1] was 74 µg/mL (≈ 192 µM).

The molecule `CC[n+]1c(-c2ccccc2)c2cc(N)ccc2c2ccc(N)cc21.[Br-]` [HOMIDIUM BROMIDE] showed an IC50 at Nucleic Acid [1] of 1.4 µg/mL.

Take `Cc1nc2sc(S(N)(=O)=O)nn2c(=O)c1/N=N/c1ccc(Br)cc1`: the IC50 on Nucleic Acid [1] is 74 µg/mL (≈ 172 µM).

Consider `Cc1ccc(/N=N/c2c(C)nc3sc(S(N)(=O)=O)nn3c2=O)cc1`, for which the result in the data set with Nucleic Acid [2] was inactive. On Nucleic Acid [1], the IC50 was 81 µg/mL (≈ 222 µM).

In the case of `NS(=O)(=O)C1=NN2C(=NC(c3ccccc3)=CC2c2ccc([N+](=O)[O-])cc2)S1` (centres undefined), the result with Nucleic Acid [2] was inactive. Moreover, the half-inhibitory concentration (IC50) on Nucleic Acid [1] was 81 µg/mL (≈ 195 µM).

With `NS(=O)(=O)c1nn2c(=O)ccnc2s1`, the IC50 on Nucleic Acid [1] stood at 70 µg/mL (≈ 301 µM).

As for `COc1ccc(C2C=C(c3ccccc3)N=C3SC(S(N)(=O)=O)=NN32)cc1OC` (centres undefined), the result in the data set with Nucleic Acid [2] and in the data set on Ehrlich [4] was Active. This molecule displayed a half-inhibitory concentration (IC50) at Nucleic Acid [1] of 62 µg/mL (≈ 144 µM). The Activity in data set [3] turned out to be 57.14%.

`Cc1nc2sc(S(N)(=O)=O)nn2c(=O)c1/N=N/c1ccccc1` yielded a 50% inhibitory concentration (IC50) on Nucleic Acid [1] of 77 µg/mL (≈ 220 µM).

Take `NS(=O)(=O)c1nn2c(=O)cc(C(=O)NNc3ccccc3)nc2s1`: the result in the data set on Nucleic Acid [2] was inactive. The half-inhibitory concentration (IC50) on Nucleic Acid [1] turned out to be 81 µg/mL (≈ 221 µM).

`Cc1cccc(C2=CC(c3ccccc3)N3N=C(S(N)(=O)=O)SC3=N2)c1` (centres undefined): the IC50 on Nucleic Acid [1] amounted to 72 µg/mL (≈ 187 µM).

On to `COc1ccc(/N=N/c2c(C)nc3sc(S(N)(=O)=O)nn3c2=O)cc1`, for which, in the data set with Nucleic Acid [2], the result was inactive. The IC50 on Nucleic Acid [1] worked out at 81 µg/mL (≈ 213 µM).

Consider `COc1ccc(C2C=C(c3ccc(N)cc3)N=C3SC(S(N)(=O)=O)=NN32)cc1` (centres undefined), for which the outcome in the data set with Nucleic Acid [2] was inactive. For the same molecule, the IC50 at Nucleic Acid [1] worked out at 81 µg/mL (≈ 195 µM).

On Nucleic Acid [1], `N=C1CC(=O)N=C2SC(S([NH-])(=O)=O)=NN12.[Na+]` returned an IC50 of 76 µg/mL.

Take `NS(=O)(=O)C1=NN2C(=NC(c3ccccc3)=CC2c2cc([N+](=O)[O-])ccc2Cl)S1` (centres undefined): the IC50 on Nucleic Acid [1] stood at 80 µg/mL (≈ 178 µM). This IC50 and that of the molecule before are within 1.5-fold of each other.

`O=c1[nH]cc(F)c(=O)[nH]1` [FLUOROURACIL]: the Activity in data set [9] is listed as 42.86%; in the data set with Mus musculus [10], 15.6%; in the data set on Mus musculus [11], 5.87%; with Mus musculus [12] it was 14.7%; with Mus musculus [13] it was 6.9%. The result in the data set with Ehrlich [14] was Active.

As to `Cc1nc2sc(S(N)(=O)=O)nn2c(=O)c1/N=N/c1ccc([N+](=O)[O-])cc1`, the result with Nucleic Acid [2] was inactive. Besides, at Nucleic Acid [1], the half-inhibitory concentration (IC50) came to 81 µg/mL (≈ 205 µM).

The record behind these values is ChEMBL document CHEMBL1821630, “Synthesis and antitumor activity of new sulfonamide derivatives of thiadiazolo[3,2-a]pyrimidines” (Eur J Med Chem, 2011).
